Where two headings read alike, the source gives them in different places.
Legend:
[1] = target: T1, h5-HT2C receptor (Homo sapiens, UniProt P28335); assay: biochemical; assay type: binding
T1 sequence (P28335 33-458): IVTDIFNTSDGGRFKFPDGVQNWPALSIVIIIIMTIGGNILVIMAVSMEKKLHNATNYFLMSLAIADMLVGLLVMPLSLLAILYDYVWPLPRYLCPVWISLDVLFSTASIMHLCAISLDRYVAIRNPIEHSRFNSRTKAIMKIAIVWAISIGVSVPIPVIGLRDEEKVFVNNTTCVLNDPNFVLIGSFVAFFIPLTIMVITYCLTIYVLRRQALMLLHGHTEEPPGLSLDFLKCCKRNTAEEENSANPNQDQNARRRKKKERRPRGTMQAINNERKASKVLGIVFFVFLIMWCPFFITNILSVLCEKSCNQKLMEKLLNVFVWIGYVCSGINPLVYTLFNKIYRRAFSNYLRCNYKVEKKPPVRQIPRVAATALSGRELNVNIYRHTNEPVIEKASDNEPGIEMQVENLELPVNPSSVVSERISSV

[2] = target: T2, hVMAT2 (Homo sapiens, UniProt Q05940); assay: Inhibition of [3H]DHTB binding, HEK-hVMAT2 membranes; conditions: read-out: Inhibition of [3H]DHTB binding Ki ± sem, hVMAT2
[3] = target: T2, hVMAT2; assay: Superfusion release of preloaded [3H]NE from HEK-hVMAT2 cells; assay type: cell-based; conditions: for EC50: read-out: Drug-induced release of [3H]NE EC50 ± sem, hVMAT2, superfusion
[4] = target: T3, hNET (Homo sapiens, UniProt P23975); assay: Superfusion release of preloaded [3H]NE from HEK-hNET cells; assay type: cell-based; conditions: for releasing efficacy, hNET [3H]NE: concentrations ranging from 10 nM to 100 µM; for EC50: read-out: Drug-induced release of [3H]neurotransmitter EC50 ± sem, hNET [3H]NE, superfusion, AUC; for % maximum release ± sem, hNET [3H]NE: relative to maximal AUC induced by METH (0.3 or 1 µM)
[5] = target: hSigma1 receptor (Homo sapiens, UniProt Q99720); assay: [3H]; assay type: binding
[6] = target: T4, hDAT (Homo sapiens, UniProt Q01959); assay: Inhibition of [125I]RTI-55 binding, HEK-hDAT membranes; conditions: read-out: Inhibition of [125I]RTI-55 binding Ki ± sem, hDAT; HEK-hDAT membranes
[7] = target: T5, h5-HT1A receptor (Homo sapiens, UniProt P08908); assay: [3H]8-OH-DPAT binding, HEK-h5-HT1A; conditions: read-out: Inhibition of radioligand binding Ki ± sem, h5-HT1A [3H]8OH-DPAT
T5 sequence (P08908 1-422): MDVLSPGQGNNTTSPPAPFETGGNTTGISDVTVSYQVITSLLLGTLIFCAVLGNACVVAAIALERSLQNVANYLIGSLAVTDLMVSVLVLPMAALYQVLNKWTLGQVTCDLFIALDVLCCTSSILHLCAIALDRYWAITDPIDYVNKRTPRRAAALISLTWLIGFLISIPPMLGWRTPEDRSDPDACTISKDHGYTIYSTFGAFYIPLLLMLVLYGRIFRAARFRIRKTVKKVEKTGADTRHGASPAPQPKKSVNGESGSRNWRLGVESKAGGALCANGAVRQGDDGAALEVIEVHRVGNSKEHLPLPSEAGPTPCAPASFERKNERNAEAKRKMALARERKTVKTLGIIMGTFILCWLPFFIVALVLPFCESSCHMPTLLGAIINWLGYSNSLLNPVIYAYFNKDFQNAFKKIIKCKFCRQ

[8] = target: T5, h5-HT1A receptor; assay: Stimulation of [35S]GTPγS binding, HEK-h5-HT1A membranes; assay type: biochemical; conditions: for h5-HT1A Stimulation of [35S]GTPγS binding % maximum stimulation ± sem: normalized to the maximal stimulation by 5-HT; for EC50: read-out: h5-HT1A Stimulation of [35S]GTPγS binding EC50 ± sem
[9] = target: T1, h5-HT2C receptor; assay: Inhibition of 5-HT-stimulated IP-1 formation; assay type: cell-based; conditions: for h5-HT2C Inhibition of 5-HT-stimulated IP-1 formation % maximum inhibition ± sem: 100 nM 5-HT, normalized to maximal inhibition by SB242084 (1 µM)
[10] = target: T6, hSERT (Homo sapiens, UniProt P31645); assay: Inhibition of [3H]5-HT uptake, intact HEK-hSERT cells; assay type: cell-based; conditions: for ratio of binding Ki to uptake IC50, hSERT: [125I]RTI-55 Ki / [3H]5-HT uptake IC50; for IC50: read-out: Inhibition of [3H]neurotransmitter uptake IC50 ± sem, hSERT [3H]5-HT, 20 nM [3H]5-HT, intact cells
[11] = target: T7, h5-HT2A receptor (Homo sapiens, UniProt P28223); assay: [125I]DOI binding, HEK-h5-HT2A; conditions: read-out: Inhibition of radioligand binding Ki ± sem, h5-HT2A [125I]DOI
[12] = target: T4, hDAT; assay: Inhibition of [3H]DA uptake, intact HEK-hDAT cells; assay type: cell-based; conditions: for ratio of binding Ki to uptake IC50, hDAT: [125I]RTI-55 Ki / [3H]DA uptake IC50; for IC50: read-out: Inhibition of [3H]neurotransmitter uptake IC50 ± sem, hDAT [3H]DA, 20 nM [3H]DA, intact cells
[13] = target: T7, h5-HT2A receptor; assay: Inhibition of 5-HT-stimulated IP-1 formation; assay type: cell-based; conditions: 100 nM 5-HT; for h5-HT2A Inhibition of 5-HT-stimulated IP-1 formation % maximum inhibition ± sem: normalized to maximal inhibition by ketanserin (10 µM); for IC50: read-out: h5-HT2A Inhibition of 5-HT-stimulated IP-1 formation IC50 ± sem
[14] = target: T6, hSERT; assay: Superfusion release of preloaded [3H]5-HT from HEK-hSERT cells; assay type: cell-based; conditions: for EC50: read-out: Drug-induced release of [3H]neurotransmitter EC50 ± sem, hSERT [3H]5-HT, superfusion, AUC
[15] = target: T3, hNET; assay: cell-based; assay type: cell-based; conditions: for IC50: read-out: Inhibition of [3H]neurotransmitter uptake IC50 ± sem, hNET [3H]NE
[16] = target: T2, hVMAT2; assay: Inhibition of [3H]5-HT uptake, HEK-hVMAT2 membrane preparation; assay type: biochemical; conditions: read-out: Inhibition of [3H]5-HT uptake IC50 ± sem, hVMAT2; 40 nM [3H]5-HT, 2 mM MgATP
[17] = target: T3, hNET; assay: biochemical; assay type: binding; conditions: read-out: Inhibition of [125I]RTI-55 binding Ki ± sem, hNET
[18] = target: T4, hDAT; assay: Superfusion release of preloaded [3H]DA from HEK-hDAT cells; assay type: cell-based; conditions: for releasing efficacy, hDAT [3H]DA: concentrations ranging from 1 nM to 100 µM; for EC50: read-out: Drug-induced release of [3H]neurotransmitter EC50 ± sem, hDAT [3H]DA, superfusion, AUC
[19] = read-out: Inhibition of [3H]pentazocine binding Ki ± sem, hSigma1
[20] = read-out: Inhibition of radioligand binding Ki ± sem, h5-HT2C [125I]DOI

T7 sequence (P28223 whole entry): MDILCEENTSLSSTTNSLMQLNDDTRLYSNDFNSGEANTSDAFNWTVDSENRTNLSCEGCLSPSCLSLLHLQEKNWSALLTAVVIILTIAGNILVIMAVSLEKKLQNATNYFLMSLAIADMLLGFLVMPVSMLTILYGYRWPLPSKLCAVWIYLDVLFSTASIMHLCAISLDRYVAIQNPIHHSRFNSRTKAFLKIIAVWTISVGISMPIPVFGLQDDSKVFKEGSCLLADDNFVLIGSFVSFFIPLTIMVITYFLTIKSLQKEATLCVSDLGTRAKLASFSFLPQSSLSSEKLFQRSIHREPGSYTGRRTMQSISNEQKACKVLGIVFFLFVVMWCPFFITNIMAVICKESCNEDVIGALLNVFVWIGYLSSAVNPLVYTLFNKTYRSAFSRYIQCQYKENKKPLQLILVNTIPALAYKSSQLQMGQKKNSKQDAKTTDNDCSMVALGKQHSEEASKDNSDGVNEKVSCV
T4 sequence (Q01959 whole entry): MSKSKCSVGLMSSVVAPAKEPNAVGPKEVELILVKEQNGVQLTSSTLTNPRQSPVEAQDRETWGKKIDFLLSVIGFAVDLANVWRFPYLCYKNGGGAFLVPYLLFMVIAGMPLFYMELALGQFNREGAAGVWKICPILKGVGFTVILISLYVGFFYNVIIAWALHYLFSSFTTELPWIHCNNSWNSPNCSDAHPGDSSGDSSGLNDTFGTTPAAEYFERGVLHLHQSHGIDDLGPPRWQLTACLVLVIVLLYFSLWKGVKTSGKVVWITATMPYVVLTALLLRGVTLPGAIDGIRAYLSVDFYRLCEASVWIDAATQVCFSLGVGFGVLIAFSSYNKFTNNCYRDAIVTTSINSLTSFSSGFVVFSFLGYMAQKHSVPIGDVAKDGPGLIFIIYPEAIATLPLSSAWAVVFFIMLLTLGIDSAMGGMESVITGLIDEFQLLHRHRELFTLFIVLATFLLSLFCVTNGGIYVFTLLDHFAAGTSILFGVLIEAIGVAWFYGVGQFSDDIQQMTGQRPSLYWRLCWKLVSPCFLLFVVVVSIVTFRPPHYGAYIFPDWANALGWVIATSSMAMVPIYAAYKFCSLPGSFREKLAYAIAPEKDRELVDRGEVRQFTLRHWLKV
T3 sequence (P23975 whole entry, the tested form may be a part): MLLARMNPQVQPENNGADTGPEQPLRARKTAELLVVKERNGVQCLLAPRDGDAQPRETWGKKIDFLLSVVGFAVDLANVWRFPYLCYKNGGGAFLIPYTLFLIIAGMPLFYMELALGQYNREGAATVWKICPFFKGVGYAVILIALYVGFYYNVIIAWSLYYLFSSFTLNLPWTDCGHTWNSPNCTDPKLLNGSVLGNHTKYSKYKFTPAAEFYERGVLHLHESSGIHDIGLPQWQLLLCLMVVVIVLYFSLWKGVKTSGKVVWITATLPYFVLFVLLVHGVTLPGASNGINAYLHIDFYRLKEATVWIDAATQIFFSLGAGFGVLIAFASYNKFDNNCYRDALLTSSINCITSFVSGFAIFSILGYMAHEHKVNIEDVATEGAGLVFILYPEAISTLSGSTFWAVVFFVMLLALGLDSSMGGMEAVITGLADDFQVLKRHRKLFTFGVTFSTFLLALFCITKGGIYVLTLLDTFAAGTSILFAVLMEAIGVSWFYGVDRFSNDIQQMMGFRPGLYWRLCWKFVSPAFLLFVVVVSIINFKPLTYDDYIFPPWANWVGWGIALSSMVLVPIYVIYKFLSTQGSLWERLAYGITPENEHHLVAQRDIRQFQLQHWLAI
T6 sequence (P31645 whole entry): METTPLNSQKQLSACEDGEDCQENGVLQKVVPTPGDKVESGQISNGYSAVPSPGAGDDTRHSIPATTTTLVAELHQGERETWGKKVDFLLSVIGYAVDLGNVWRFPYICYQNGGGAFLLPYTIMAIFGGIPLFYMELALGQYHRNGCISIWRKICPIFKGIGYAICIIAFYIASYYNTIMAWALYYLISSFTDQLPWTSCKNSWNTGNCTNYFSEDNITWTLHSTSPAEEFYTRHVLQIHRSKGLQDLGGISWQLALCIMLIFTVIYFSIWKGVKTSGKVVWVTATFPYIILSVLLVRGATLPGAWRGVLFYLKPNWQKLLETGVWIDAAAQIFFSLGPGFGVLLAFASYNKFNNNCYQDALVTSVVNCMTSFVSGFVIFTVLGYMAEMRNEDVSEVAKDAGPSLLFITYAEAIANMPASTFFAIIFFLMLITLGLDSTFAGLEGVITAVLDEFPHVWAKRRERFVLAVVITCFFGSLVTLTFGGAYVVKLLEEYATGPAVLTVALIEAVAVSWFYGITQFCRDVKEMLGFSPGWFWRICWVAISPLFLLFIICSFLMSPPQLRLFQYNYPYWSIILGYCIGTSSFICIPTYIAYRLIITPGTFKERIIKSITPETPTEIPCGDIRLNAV
hSigma1 receptor, sequence (Q99720 whole entry): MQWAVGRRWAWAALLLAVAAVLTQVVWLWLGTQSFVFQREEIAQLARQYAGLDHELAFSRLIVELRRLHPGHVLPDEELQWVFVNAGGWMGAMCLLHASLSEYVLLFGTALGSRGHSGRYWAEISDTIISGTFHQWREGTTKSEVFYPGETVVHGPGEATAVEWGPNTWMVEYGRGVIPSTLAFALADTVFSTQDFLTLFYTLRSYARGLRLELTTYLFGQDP
T2 sequence (Q05940 whole entry, the tested form may be a part): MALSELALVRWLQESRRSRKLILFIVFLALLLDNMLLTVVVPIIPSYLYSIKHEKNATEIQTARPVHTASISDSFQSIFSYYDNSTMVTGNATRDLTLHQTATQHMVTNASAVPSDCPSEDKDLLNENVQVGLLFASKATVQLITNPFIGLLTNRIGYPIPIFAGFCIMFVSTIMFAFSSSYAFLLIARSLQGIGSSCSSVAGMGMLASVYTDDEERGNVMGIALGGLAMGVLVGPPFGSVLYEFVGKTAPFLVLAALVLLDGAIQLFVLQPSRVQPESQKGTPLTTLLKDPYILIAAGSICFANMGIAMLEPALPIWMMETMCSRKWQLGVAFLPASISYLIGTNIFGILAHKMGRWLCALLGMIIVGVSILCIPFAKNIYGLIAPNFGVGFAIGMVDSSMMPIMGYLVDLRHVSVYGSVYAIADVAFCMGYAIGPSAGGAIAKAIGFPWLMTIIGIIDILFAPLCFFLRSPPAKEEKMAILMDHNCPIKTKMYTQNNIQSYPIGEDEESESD

SMILES: COc1cc(CC(C)N)c(OC)cc1I (racemic) [[^125I]DOI, (±)-1-(2,5,-dimethoxy-4-iodophenyl)-2-aminopropane, reference compound]
- Kd ([1]; read-out: Kd of radioligand, HEK-H5HT2C): 0.00418 ± 0.00046 µM

SMILES: CCC(NC)C(=O)c1ccc2c(c1)OCO2 (stereo not drawn) [Butylone]
- Ki [2]: 730 ± 110 µM
- Release of [3H]NE % maximum release ± sem or range, hVMAT2 [3]: 17.4 ± 1.1%
- EC50 [3]: 4.4 ± 0.52 µM
- releasing efficacy, hNET [3H]NE [4]: minimal releasing efficacy
- EC50 [4]: > 100 µM
- % maximum release ± sem, hNET [3H]NE [4]: 3.6 ± 2.2%
- Ki [5, 19]: 7.9 ± 1.8 µM
- Ki [1, 20]: 41 ± 12 µM
- Ki [6]: 1.73 ± 0.27 µM
- Ki [7]: > 96 µM
- h5-HT1A Stimulation of [35S]GTPγS binding % maximum stimulation ± sem [8]: 52 ± 13%
- EC50 [8]: 440 ± 110 µM
- h5-HT2C Inhibition of 5-HT-stimulated IP-1 formation % maximum inhibition ± sem [9]: 11 ± 12%
- ratio of binding Ki to uptake IC50, hSERT [10]: 5.3
- IC50 [10]: 1.97 ± 0.43 µM
- Ki [11]: 118 ± 17 µM
- ratio of binding Ki to uptake IC50, hDAT [12]: 8.2
- IC50 [12]: 0.211 ± 0.054 µM
- h5-HT2A Inhibition of 5-HT-stimulated IP-1 formation % maximum inhibition ± sem [13]: 95.9 ± 4.1%
- IC50 [13]: 410 ± 110 µM
- % maximum release ± sem, hSERT [3H]5-HT [14]: 30.1 ± 6.5%
- EC50 [14]: 3.1 ± 1.4 µM
- ratio of binding Ki to uptake IC50, hNET ([15]; [125I]RTI-55 Ki / [3H]NE uptake IC50): 7.5
- IC50 ([15]; 20 nM [3H]NE, intact cells): 1.06 ± 0.24 µM
- IC50 [16]: 162 ± 55 µM
- Ki ([17]; HEK-hNET membranes): 7.98 ± 0.55 µM
- % maximum release ± sem, hDAT [3H]DA [18]: 5.4 ± 3.8%
- releasing efficacy, hDAT [3H]DA [18]: minimal releasing efficacy
- EC50 [18]: > 10 µM

SMILES: CCCC(C(=O)c1ccc2ccccc2c1)N1CCCC1 (stereo not drawn) [Naphyrone, naphthylpyrovalerone]
- Ki [2]: 119 ± 20 µM
- EC50 [3]: > 100 µM
- Release of [3H]NE % maximum release ± sem or range, hVMAT2 ([3]; relative to maximal AUC induced by METH (100 µM or 1 mM)): 34 ± 14%
- Release of [3H]NE % maximum release ± sem or range, hVMAT2 ([3]; relative to maximal AUC induced by METH (100 µM or 1 mM), listed as naphyrone): less than 35%
- releasing efficacy, hNET [3H]NE [4]: minimal releasing efficacy
- EC50 [4]: > 100 µM
- % maximum release ± sem, hNET [3H]NE [4]: 36 ± 18%
- Ki [5, 19]: 0.509 ± 0.052 µM
- Ki [1, 20]: 23.2 µM
- Ki [6]: 0.0108 ± 0.00076 µM
- Ki [7]: 4.64 ± 0.6 µM
- h5-HT1A Stimulation of [35S]GTPγS binding % maximum stimulation ± sem [8]: 80 ± 15%
- EC50 [8]: 116 ± 30 µM
- h5-HT2C Inhibition of 5-HT-stimulated IP-1 formation % maximum inhibition ± sem [9]: 32 ± 14%
- ratio of binding Ki to uptake IC50, hSERT [10]: less than six
- IC50 [10]: 0.0593 ± 0.0097 µM
- Ki [11]: 17.7 ± 2.6 µM
- ratio of binding Ki to uptake IC50, hDAT [12]: less than six
- fold less potent at other target proteins than at biogenic amine transporters ([12]; other target proteins vs biogenic amine transporters): 60–350 fold
- IC50 [12]: 0.0126 ± 0.0031 µM
- h5-HT2A Inhibition of 5-HT-stimulated IP-1 formation % maximum inhibition ± sem [13]: 98.18 ± 0.94%
- IC50 [13]: 65 ± 11 µM
- % maximum release ± sem, hSERT [3H]5-HT [14]: 20.1 ± 9.3%
- releasing efficacy, hSERT [3H]5-HT ([14]; concentrations ranging from 1 nM to 100 µM): minimal releasing efficacy
- EC50 [14]: 7.5 ± 3 µM
- ratio of binding Ki to uptake IC50, hNET [15]: less than six
- IC50 [15]: 0.035 µM
- IC50 [16]: 21.4 ± 7.1 µM
- Ki [17]: 0.059 µM
- releasing efficacy, hDAT [3H]DA [18]: minimal releasing efficacy
- EC50 [18]: > 100 µM
- % maximum release ± sem, hDAT [3H]DA ([18]; relative to maximal AUC induced by METH (1 or 10 µM)): < 6%

SMILES: CC(N)Cc1ccc(Cl)cc1 (stereo not drawn) [PCA, p-chloroamphetamine, reference compound]
- % maximum release ± sem, hSERT [3H]5-HT [14]: 106.4 ± 2.0%
- EC50 [14]: 0.8 ± 0.27 µM

SMILES: CCC1(O)CC2c3cc(OC)c(OC)cc3CCN2CC1CC(C)C [RO4-1284, (2R,2S,11bs)-2-ethyl-3-isobutyl-9,10-dimethoxy-2,2,4,6,7,11b-hexahydro-1H-pyrido[2,1-a]isoquinolin-2-ol, reference compound]
- Ki [2]: 0.15 ± 0.015 µM
- IC50 [16]: 0.098 ± 0.032 µM

SMILES: Cc1cc2c(cc1Cl)N(C(=O)Nc1ccc(Oc3cccnc3C)nc1)CC2 [SB242084, reference compound]
- Ki [1]: 0.00247 µM
- IC50 [9]: 0.00028 ± 0.00012 µM

SMILES: O=C(CCCN1CCC2(CC1)C(=O)NCN2c1ccccc1)c1ccc(F)cc1 [Spiperone, reference compound]
- Ki ([5]; Inhibition of [3H]pentazocine binding Ki ± sem, hSigma1): 1.31 ± 0.24 µM
